Target: T1, GLP-1R (Homo sapiens, UniProt P43220)
T1 construct: host or cells: GLP-1R CRE-bla CHO-K1 cells
Experiment: EC20 GLP-1(9-36) PAM cAMP assay: dose response of compound in the presence of fixed concentration of GLP-1(9-36)
Format: cell-based
Conditions: GLP-1R CRE-bla CHO-K1 cells, compound dose response with fixed concentration of GLP-1(9-36), read-out: EC20 GLP-1(9-36) PAM EC50
Method in brief: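 Positive allosteric modulation read as cAMP accumulation: compound titrations (12 points) combined with an EC20 level of GLP-1(9-36) on CHO-K1 GLP-1R CRE-bla cells, IBMX present, 30 min, 37 °C, pH 7.4 buffer. Luminescence converted to cAMP via standards; non-linear fit gave EC50 and Emax.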

T1 sequence (P43220 24-463): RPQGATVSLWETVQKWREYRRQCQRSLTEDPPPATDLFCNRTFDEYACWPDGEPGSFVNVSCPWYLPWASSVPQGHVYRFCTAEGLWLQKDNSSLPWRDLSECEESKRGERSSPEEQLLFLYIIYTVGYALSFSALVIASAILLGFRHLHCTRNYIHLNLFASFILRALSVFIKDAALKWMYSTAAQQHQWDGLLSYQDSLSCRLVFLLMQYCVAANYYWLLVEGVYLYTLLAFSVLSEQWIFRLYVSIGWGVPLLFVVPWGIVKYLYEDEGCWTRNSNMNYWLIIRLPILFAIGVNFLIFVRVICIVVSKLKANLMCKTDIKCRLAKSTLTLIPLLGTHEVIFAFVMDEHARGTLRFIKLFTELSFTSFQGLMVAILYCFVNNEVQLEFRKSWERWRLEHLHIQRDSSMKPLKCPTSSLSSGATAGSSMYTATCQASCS
T1 sequence (P01275 100-127 partner limits assumed): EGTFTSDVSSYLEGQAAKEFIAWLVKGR

EC50	SMILES
< 800 nM	CCC1CCC(C2CCN(c3cnc(-c4ccc(C[C@H](NC(=O)c5ccc(C(C)(C)C)s5)C(=O)N5CC(C(=O)O)C5)cc4)nc3)CC2)CC1 (stereo partly drawn) [Compound 1429]
800 to 2500 nM	CC[C@H]1CC[C@H](c2ccc(-c3cnc(-c4ccc(C[C@H](NC(=O)c5ccc(N(C)C)cc5)C(=O)O)cc4)nc3)cc2)CC1 [Compound 1380]
< 800 nM	Cc1cccc(C2CCN(c3cnc(-c4ccc(C[C@H](NC(=O)c5ccc(C(C)(C)C)s5)C(=O)N5CC(C(=O)O)C5)cc4)nc3)CC2)c1 [Compound 1476]
800 to 2500 nM	C[C@@H](NC(=O)[C@H](Cc1ccc(-c2ncc(-c3ccc(N4CCOCC4)cc3)cn2)cc1)NC(=O)c1ccc(C(C)(C)C)s1)C(=O)O [Compound 1307]
< 800 nM	CCC[C@H]1CC[C@H](C2CCN(c3cnc(-c4ccc(C[C@H](NC(=O)c5ccc(C(C)(C)C)s5)C(=O)NC(C(=O)O)c5ccco5)cc4)nc3)CC2)CC1 (stereo partly drawn) [Compound 1454]
2500 to 5000 nM	CC(C)(C)COc1ccc(-c2cnc(-c3ccc(C[C@H](NC(=O)c4ccc(C(C)(C)C)s4)C(=O)O)cc3)nc2)cc1 [Compound 1350]
5000 to 10000 nM	CC[C@H]1CC[C@H](c2ccc(-c3cnc(-c4ccc(C[C@@H](NC(=O)c5ccc(C(C)(C)C)s5)C(=O)N[C@H](C)C(=O)O)cc4)nc3)cc2)CC1 [Compound 1269]
800 to 2500 nM	CN(C)c1ccc(C2CCN(c3cnc(-c4ccc(CC(NC(=O)c5ccc(C(C)(C)C)s5)C(=O)N5CC(C(=O)O)C5)cc4)nc3)CC2)cc1 (stereo not drawn) [Compound 1486]
< 800 nM	CC[C@H]1CC[C@H](c2ccc(-c3cnc(-c4ccc(C[C@H](NC(=O)c5cnc(C6CC6)nc5)C(=O)O)cc4)nc3)cc2)CC1 [Compound 1391]
800 to 2500 nM	C[C@@H](NC(=O)[C@H](Cc1ccc(-c2ncc(-c3ccc(N4CCCC4)cc3)cn2)cc1)NC(=O)c1ccc(C(C)(C)C)s1)C(=O)O [Compound 1300]
< 800 nM	CCC[C@H]1CC[C@H](C2CCN(c3cnc(-c4ccc(C[C@H](NC(=O)c5ccc(C(C)(C)C)s5)C(=O)N[C@@H](CO)C(=O)O)cc4)nc3)CC2)CC1 [Compound 1467]
< 800 nM	CC(C)(C)c1ccc(C(=O)N[C@@H](Cc2ccc(-c3ncc(-c4ccc(-c5ccc(OC(F)(F)F)cc5)cc4)cn3)cc2)C(=O)O)s1 [Compound 1356, (S)-2-(5-(tert-butyl)thiophene-2-carboxamido)-3-(4-(5-(4′-(trifluoromethoxy)-[1,1′-biphenyl]-4-yl)pyrimidin-2-yl)phenyl)propanoic acid]
< 800 nM	CC(C)(C)c1ccc(C(=O)N[C@@H](Cc2ccc(-c3ncc(-c4ccc(-c5ccccc5OC(F)(F)F)cc4F)cn3)cc2)C(=O)N2CC(C(=O)O)C2)s1 [Compound 1224]

Same assay, conditions: dose response of compound in presence of fixed concentration of GLP-1(9-36), GLP-1R CRE-bla CHO-K1 cells, read-out: EC20 GLP-1(9-36) PAM EC50

EC50	SMILES
5000 to 10000 nM	C[C@@H](NC(=O)[C@H](Cc1ccc(-c2ncc(-c3ccc(C(C)(C)C#N)cc3F)cn2)cc1)NC(=O)c1ccc(C(C)(C)C)s1)C(=O)O [Compound 1018]
5000 to 10000 nM	CCCCCCCOc1ccc(-c2cnc(-c3ccc(C[C@H](NC(=O)c4ccc(C(C)(C)C)s4)C(=O)Nc4ccc(C(F)(F)F)cc4)cc3)nc2)cc1 [Compound 965]
5000 to 10000 nM	COc1ccc(-c2cnc(-c3ccc(C[C@H](NC(=O)c4ccc(C(C)(C)C)s4)C(=O)N4CC(C(=O)O)C4)cc3)nc2)cc1 [Compound 784]
800 to 2500 nM	CCCCCCCOc1ccc(-c2cnc(-c3ccc(C[C@H](NC(=O)c4ccc(C(C)(C)C)cc4)C(=O)NC4(CC(=O)O)CCOCC4)cc3)nc2)cc1 [Compound 553]
800 to 2500 nM	CCCCCCCOc1ccc(-c2cnc(-c3ccc(C[C@H](NC(=O)c4ccc(C(C)(C)C)cc4)C(=O)NCCC(=O)O)cc3)nc2)cc1Cl [Compound 702]
800 to 2500 nM	CCCCCCOc1ccc(-c2cnc(-c3ccc(C[C@H](NC(=O)c4ccc(C(C)(C)C)cc4)C(=O)N[C@H](C)C(=O)O)cc3)nc2)cc1 [Compound 719]
5000 to 10000 nM	C[C@@H](NC(=O)[C@H](Cc1ccc(-c2ncc(-c3ccc(-c4ccc(F)cc4F)cc3)cn2)cc1)NC(=O)c1ccc(C(C)(C)C)s1)C(=O)O [Compound 1149]
< 800 nM	CCCCCCCOc1ccc(-c2cnc(-c3ccc(C[C@H](NC(=O)c4ccc(C(C)(C)C)c(OC)c4)C(=O)N[C@H](C)C(=O)O)cc3)nc2)cc1 [Compound 837]
< 800 nM	CCCCCCCOc1ccc(-c2cnc(-c3ccc(C[C@H](NC(=O)c4ccc(C(C)(C)C)cc4)C(=O)NC(CC)C(=O)O)cc3)nc2)cc1 (stereo partly drawn) [Compound 548]
800 to 2500 nM	CC(C)(C)c1ccc(-c2cnc(-c3ccc(C[C@H](NC(=O)c4ccc(C(C)(C)C)s4)C(=O)N4CC[C@H](C(=O)O)C4)cc3)nc2)cc1 [Compound 768]
800 to 2500 nM	CCCCCCCOc1ccc(-c2cnc(-c3ccc(C[C@H](NC(=O)c4ccc(C(C)(C)C)s4)C(=O)N4CC(CC(=O)O)C4)cc3)nc2)cc1 [Compound 607]
2500 to 5000 nM	CCCCCCCOc1ccc(-c2cnc(-c3ccc(C[C@H](NC(=O)c4ccc(C(F)(F)F)cc4)C(=O)N[C@H](C)C(=O)O)cc3)nc2)cc1 [Compound 822]
800 to 2500 nM	CCCCCCCOc1ccc(-c2cnc(-c3ccc(C[C@H](NC(=O)c4ccc(C(C)(C)C)s4)C(=O)N4CCC(C)(C(=O)O)C4)cc3)nc2)cc1 (stereo partly drawn) [Compound 637]
800 to 2500 nM	CCCCCCCOc1ccc(-c2cnc(-c3ccc(C[C@H](NC(=O)c4ccc(C(C)(C)C)cc4)C(=O)NC(C(=O)O)c4nc(C)oc4C)cc3)nc2)cc1 (stereo partly drawn) [Compound 536]
< 800 nM	CC(C)(C)COc1ccc(-c2cnc(-c3ccc(C[C@H](NC(=O)c4ccc(C(C)(C)C)s4)C(=O)N4CC(C(=O)O)C4)cc3)nc2)cc1 [Compound 775]
800 to 2500 nM	CCCCCCCOc1ccc(-c2cnc(-c3ccc(C[C@H](NC(=O)c4ccc(C(C)(C)C#N)cc4)C(=O)N4CC[C@H](C(=O)O)C4)cc3)nc2)cc1 [Compound 860]
800 to 2500 nM	CCCCCCCOc1ccc(-c2cnc(-c3ccc(C[C@H](NC(=O)c4ccc(C(C)(C)C)s4)C(=O)N4CC(C)(C(=O)O)C4)cc3)nc2)cc1 [Compound 874]
< 800 nM	CCCCCCCOc1ccc(-c2cnc(-c3ccc(C[C@H](NC(=O)c4ccc(C(C)(C)C)s4)C(=O)NS(=O)(=O)CC)cc3)nc2)cc1 [Compound 420]

EC50	SMILES
800 to 2500 nM	CCCCCCCOc1ccc(-c2cnc(-c3ccc(C[C@H](NC(=O)c4ccc(C(C)(C)C)s4)C(=O)NCCNC(C)=O)cc3)nc2)cc1 [Compound 389]
2500 to 5000 nM	CCOc1cc(OC(F)(F)F)cc(-c2cnc(-c3ccc(C[C@H](NC(=O)c4ccc(C(C)(C)C)s4)C(=O)N[C@H](C)C(=O)O)cc3)nc2)c1F [Compound 1045]
800 to 2500 nM	CC(C)CCOc1ccc(-c2cnc(-c3ccc(C[C@H](NC(=O)c4ccc(C(C)(C)C)cc4)C(=O)NCCC(=O)O)cc3)nc2)cc1 [Compound 456]
800 to 2500 nM	CCCCCCCOc1ccc(-c2cnc(-c3ccc(C[C@H](NC(=O)c4ccc(C(C)(C)C)s4)C(=O)NC(C(=O)O)c4ccccc4C(F)(F)F)cc3)nc2)cc1 (stereo partly drawn) [Compound 596]
800 to 2500 nM	CCCCCCCOc1ccc(-c2cnc(-c3ccc(C[C@H](NC(=O)c4ccc(C(C)(C)C)s4)C(=O)N4CCNCC4C(=O)O)cc3)nc2)cc1 (stereo partly drawn) [Compound 891]
2500 to 5000 nM	CCCCCCCOc1ccc(-c2cnc(-c3ccc(C[C@H](NC(=O)c4ccc(C(C)(C)C)cc4)C(=O)N[C@@H](CC(=O)O)C(=O)N4CCCCC4)cc3)nc2)cc1 [Compound 504]
< 800 nM	CCCCCCCOc1ccc(-c2cnc(-c3ccc(C[C@H](NC(=O)c4ccc(C(C)(C)C)cc4)C(=O)N4C[C@H](O)C[C@H]4C(=O)O)cc3)nc2)cc1 [Compound 567]
< 800 nM	CCCCCCCOc1ccc(-c2cnc(-c3ccc(C[C@H](NC(=O)c4ccc(C(C)(C)C)s4)C(=O)N4CC(C(=O)O)C4)cc3)nc2)cc1 [Compound 635, (S)-1-(2-(5-(tert-butyl)thiophene-2-carboxamido)-3-(4-(5-(4-(heptyloxy)phenyl)pyrimidin-2-yl)phenyl)propanoyl)azetidine-3-carboxylic acid]
800 to 2500 nM	CCCCCCCOc1ccc(-c2cnc(-c3ccc(C[C@H](NC(=O)c4ccc(C(C)C)cc4)C(=O)N4CC[C@H](C(=O)O)C4)cc3)nc2)cc1 [Compound 844]
< 800 nM	CC[C@H]1CC[C@H](c2ccc(-c3cnc(-c4ccc(C[C@H](NC(=O)c5ccc(C(C)(C)C)s5)C(=O)O)cc4)nc3)cc2)CC1 [Compound 1058, (S)-2-(5-(tert-butyl)thiophene-2-carboxamido)-3-(4-(5-(4-((1r,4r)-4-ethylcyclohexyl)phenyl)pyrimidin-2-yl)phenyl)propanoic acid]
2500 to 5000 nM	CCCCCOc1ccc(-c2cnc(-c3ccc(C[C@H](NC(=O)c4ccc(C(C)(C)C)s4)C(=O)NC(C(=O)O)C(O)c4ccccc4)cc3)nc2)cc1 (stereo partly drawn) [Compound 925]
800 to 2500 nM	CCCCCCCOc1ccc(-c2cnc(-c3ccc(C[C@H](NC(=O)c4ccc(C(C)(C)C)cc4)C(=O)N[C@@H](CC(=O)N[C@@H](CO)C(=O)O)C(=O)O)cc3)nc2)cc1 [Compound 481]
2500 to 5000 nM	CCCCCCCOc1ccc(-c2cnc(-c3ccc(C[C@H](NC(=O)c4ccc(OC)cc4)C(=O)N4CC[C@H](C(=O)O)C4)cc3)nc2)cc1 [Compound 846]
2500 to 5000 nM	CCCCCCCOc1ccc(-c2cnc(-c3ccc(C[C@H](NC(=O)c4ccc(C(C)(C)C)s4)C(=O)NC(C(=O)O)C(O)c4cn(C)cn4)cc3)nc2)cc1 (stereo partly drawn) [Compound 906]
< 800 nM	CCCCCCCOc1ccc(-c2cnc(-c3ccc(C[C@H](NC(=O)c4ccc(C(C)(C)C)cc4)C(=O)NC(C(=O)O)C(O)c4ccccc4)cc3)nc2)cc1 (stereo partly drawn) [Compound 569]
800 to 2500 nM	CCCCCCCOc1ccc(-c2cnc(-c3ccc(C[C@H](NC(=O)c4ccc(C5CC5)cc4)C(=O)N[C@H](C)C(=O)O)cc3)nc2)cc1 [Compound 827]
800 to 2500 nM	CCCCCCCOc1ccc(-c2cnc(-c3ccc(C[C@H](NC(=O)c4ccc(C(C)(C)C)cc4)C(=O)NCC(CC4CCOC4)C(=O)O)cc3)nc2)cc1 (stereo partly drawn) [Compound 560]
